According to BindingDB's records for patent US20250034122 (Mission Therapeutics, 2025):

Target: T1, Ubiquitin carboxyl-terminal hydrolase 30 (Homo sapiens, UniProt Q70CQ3)
T1 sequence (Q70CQ3 whole entry): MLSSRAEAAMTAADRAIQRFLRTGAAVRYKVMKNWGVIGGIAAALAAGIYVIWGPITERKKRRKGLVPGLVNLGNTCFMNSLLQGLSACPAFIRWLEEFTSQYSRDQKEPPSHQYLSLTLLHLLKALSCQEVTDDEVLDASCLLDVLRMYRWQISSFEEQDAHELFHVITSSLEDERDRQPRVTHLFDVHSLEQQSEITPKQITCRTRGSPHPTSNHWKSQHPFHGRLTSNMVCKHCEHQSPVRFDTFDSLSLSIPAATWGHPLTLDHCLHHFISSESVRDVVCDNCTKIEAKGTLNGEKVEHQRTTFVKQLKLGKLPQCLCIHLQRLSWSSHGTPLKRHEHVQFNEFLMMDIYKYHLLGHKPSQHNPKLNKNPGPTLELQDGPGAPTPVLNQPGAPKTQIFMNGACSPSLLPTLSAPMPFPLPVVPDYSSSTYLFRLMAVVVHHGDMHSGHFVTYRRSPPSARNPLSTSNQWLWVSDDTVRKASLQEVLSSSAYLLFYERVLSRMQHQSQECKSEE
Test: USP30 Biochemical IC50 Assay
Description: A typical 8-point dilution series would be 100, 30, 10, 3, 1, 0.3, 0.1, 0.03 μM final.

## N#CN1C[C@H](NC(=O)C2NC(c3cccc(C(F)(F)F)c3)=CO2)C[C@H]1Cn1cccn1 (stereo partly specified) [US20250034122, Example 30]
  IC50: 11 nM
